Laboratory results as given in paper PMC6321252 (Molecules, 2018).

Key:
Caco-2 cells = test: Cell viability (MTT assay) in Caco-2 cells; assay type: cell-based; conditions: BB 12.5 to 50 μM, 24 h
Description: The cells were treated with different doses of compounds and incubated for 24 h. Cell viability was determined using the MTT assay. Briefly, the cells were incubated with the MTT reagent (0.5 mg/mL) at 37 °C for 4 h, and the absorbency at a wavelength of 492 nm was measured using FlexStation 3 (Molecular Devices, Sunnyvale, CA, USA). The percentage of optical density was calculated by comparing with that of the control group.

[1] = parameters: method as in PMID 21637946; conditions: cited from earlier work
P-gp = conditions: cited from earlier work
[2] = Transepithelial transport of BB across Caco-2 cell monolayers; assay type: in vitro ADME; conditions: human, read-out: efflux ratio R = Papp(B-A)/Papp(A-B) of BB
Description: (§1) Monolayers were employed at 21 days after seeding. To ensure the integrity of each cell monolayer, transepithelial electrical resistance was determined. Subsequently, cell monolayers were incubated with compounds in fresh incubation media from either the AP or BL side for designated time periods at 37 °C. The volume of incubation media on the AP and BL sides was 0.5 and 1.5 mL, respectively, and a 30 µL aliquot of the incubation solution was withdrawn at designated time points (60, 120, 180, and 240 min) from the receiver compartment and replaced with the same volume of a fresh prewarmed HBSS buffer.
(§2) BB concentrations were detected through LC–MS/MS. Apparent permeability (Papp) was calculated as follows:Papp = (dQ/dt) × VA/(C0 × A)(1) where dQ/dt is the permeability rate, A is the surface area of the monolayer, and C0 is the initial concentration of the drug.

Caco-2 cell monolayers = test: as above; assay type: in vitro ADME
Description: as §1, §2

db/db mice = test: Hypoglycemic study in diabetic db/db mice; assay type: in vivo, C57BLKS/J db/db mice; conditions: for AUC for the IPTT vs nontreated db/db mice / AUC for the OGTT vs nontreated db/db mice: 5 weeks administration; for AUC for the IPTT vs nontreated db/db mice / AUC for the OGTT vs nontreated db/db mice / effect on body weight (obesity): metformin 150 mg/kg, BB 200 mg/kg, BB 200 mg/kg plus OPCs 60 mg/kg; for effect on body weight (obesity): repeated oral administration 4 weeks
Description: Male C57BLKS/J db/db and db/m mice were obtained from the Model Animal Research Center of Nanjing University (Nanjing, China). The mice were housed in a temperature-and humidity-controlled room with free access to standard chow and water under a 12/12-h light/dark cycle. At 6 weeks of age, the diabetic db/db mice were randomly divided into 4 groups (n = 10 per group). […] After 6 h of fasting, their blood glucose was monitored using blood from the tail vein and a glucometer (Accu-CHEK, Roche, IN, USA) every week. On Days 33 and 35 after drug administration, the mice were fasted for 12 and 6 h to perform an OGTT and IPTT, respectively. At the end of the experimental period, the mice’s blood was collected for further studies. Serum TG and TC levels were assayed using commercial enzyme assay kits (Rongsheng, Shanghai, China).

efflux ratio at 240 min [2] | Papp(A-B) of BB (Caco-2 cell monolayers; apical to basolateral) | Papp(B-A) of BB (Caco-2 cell monolayers; basolateral to apical) | Compound | cytotoxicity on Caco-2 cells (MTT) (Caco-2 cells) | oral bioavailability [1] | P-gp substrate status (P-gp) | AUC for the IPTT vs nontreated db/db mice (db/db mice; p < 0.001 vs. control) | AUC for the OGTT vs nontreated db/db mice (db/db mice; p < 0.001 vs. control) | hepatotoxicity (from serum ALT and AST) (db/db mice; 5 weeks, BB 200 mg/kg with or without OPCs 60 mg/kg) | lowering of fasting blood glucose (FBG) (db/db mice; oral, 4 weeks, BB 200 mg/kg with or without OPCs 60 mg/kg, p < 0.001 vs. control) | effect on body weight (obesity) (db/db mice)
7.74 ± 1.13 | 0.146 ± 0.012 ×10^−6 | 1.001 ± 0.049 ×10^−6 | COc1ccc2cc3[n+](cc2c1OC)CCc1cc2c(cc1-3)OCO2 [BB, Berberine] | no toxic effect | < 1% | substrate of P-gp | significantly lower | significantly lower | did not cause hepatotoxicity | 35% | no significant effect
– | – | – | CN(C)C(=N)N=C(N)N [metformin] | – | – | – | significantly lower | significantly lower | – | – | no significant effect
